Test results: publication PMC10726475, “Atypical N-Alkyl to N-Noralkoxy Switch in a Dual cSRC/BCR-ABL1 Kinase Inhibitor Improves Drug Efflux and hERG Affinity” (ACS Medicinal Chemistry Letters, 2023)

Target: CYP2D6 (Homo sapiens, UniProt P10635)
Test: in vitro
Details: both, microsomes, CYP2D6 Inhibition percentage(%) at Top conc.

Sequence of CYP2D6 (P10635 whole entry): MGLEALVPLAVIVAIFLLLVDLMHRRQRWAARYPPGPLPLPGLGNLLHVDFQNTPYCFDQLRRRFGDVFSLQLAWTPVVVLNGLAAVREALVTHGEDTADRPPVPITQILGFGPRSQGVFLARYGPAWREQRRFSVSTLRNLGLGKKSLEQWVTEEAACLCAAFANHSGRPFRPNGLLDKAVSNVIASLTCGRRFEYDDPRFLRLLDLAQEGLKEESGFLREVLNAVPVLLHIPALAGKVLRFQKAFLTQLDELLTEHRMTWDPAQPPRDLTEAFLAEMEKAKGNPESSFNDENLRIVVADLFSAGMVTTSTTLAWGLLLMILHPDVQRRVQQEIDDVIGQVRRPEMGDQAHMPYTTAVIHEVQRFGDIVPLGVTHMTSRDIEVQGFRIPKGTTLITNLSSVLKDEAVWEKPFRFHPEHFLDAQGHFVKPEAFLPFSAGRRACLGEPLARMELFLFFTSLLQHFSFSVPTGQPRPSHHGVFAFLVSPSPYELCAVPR

## Fc1ccc([C@@H]2CCNC[C@H]2COc2ccc3c(c2)OCO3)cc1 [Paroxetine]
  inhibition at 20 min: 91.7%
